According to US20260034042A1, “Composition with Improved SPF and UVA Photoprotection” (Symrise AG, priority 2022, published 2026):

Experiments:
Format in all cases: physicochemical
[1] = Determination of the in-vitro SPF on PMMA plates (Labsphere UV-200S, Colipa method)
Description: (§1) Determination of the in-vitro SPFs and UVA-PF
(§2) The SPF boosting and UVA-PF boosting test is carried out as in-vitro determination of SPFs.
(§3) Principle: The formulation to be tested (emulsion, solution) is weighed on PMMA plates with the help of an analytical balance. The formulation if distributed and incorporated on the plate using a method corresponding to the formulation. The thus prepared plates are then measured on a Labsphere device and the results are calculated as SPF with a suitable software.
(§4) PMMA plates (Polymethylmethacrylate), measuring 3 cm×8.5 cm (WVVW5 plates based on […] “Determination of UVA photoprotection in vitro” with 5μ roughness by Schonberg GmbH & Co. AG) are used to perform an SPF measurement.
(§5) A reference sample is obtained by distributing 25 to 28 mg glycerin (99.5%) with the index finger on the roughened side of the PMMA plate. The glycerin film must be very thin and uniform. Subsequently, this plate is stored for at least 2 hours.
(§6) The reference plate is measured with the following transmission values:
(§7) The sample to be measured should be homogeneously mixed with a spatula before application. 1.2 mg/cm2 of sample is evenly distributed in several rows of dots on the PMMA plate. In order to minimise the evaporation of the sample during weighing, this process must be carried out quickly. The sample is then evenly distributed by hand with a finger previously saturated with the sample material. The distribution takes place in two phases: • Phase 1: Fast and uniform distribution with a slight pressure until the emulsion is broken. • Phase 2: The sample is massaged into the rough surface with strong pressure and the process should last 30 seconds. In this context under strong pressure means that when massaged on a scale, this indicates at least […].
(§8) Sun oils: The product quantity is generally 1.3 mg/cm^2. For strongly spreading oils, less product is applied, as the amount of oil cannot be “absorbed” from the plate. Then the amount of application should be reduced to 1.0-0.75 mg/cm^2. Application method here is also the 30 s fast/light and 30 s strong method. • Sun sprays: The “30/30 method” applies here (especially for thicker sprays). • For very liquid sprays (similar to water): • Fast and uniform distribution with a slight pressure, until the emulsion “breaks”. • The process should take 45 s.
(§9) The finished sample plates are stored dust-free and measured at the earliest after 15 minutes.
(§10) The samples are measured using the UV-200S device, using the specified Colipa method. The Labsphere user manual also applies.
(§11) A new “Study” is opened via File and then the “Colipa Guideline 2011” method is selected under the heading “Study”. In the new window “Colipa Method Options” the number of plates (3 plates), the measuring points per plate (5 measuring points) and the in vivo SPF and, if necessary, the irradiance intensity of the external irradiance device (Solar Simulator Irradiance) entered. • The irradiance set on the external device is 765 W/m2 as standard. The complete naming of the sample is done via Study”, “Study Information”.
At the beginning of the measurement, a blank value of the glycerin reference sample is measured (“scan blank plate”). In order to determine the SPF of a sample, a total of 15 measuring points (3 plates of 5 measuring points) are then created (“Scan Location”).
• After the first measurement run, the device calculates an irradiation dose (Irradiation Dose/J/cm2) and the duration (exposure time) for each plate. The plates are irradiated in the external irradiation device (irradiation duration=average value of the 3 plates).
The calculation of irradiation dose and exposure time is based on the irradiance (765 W/m^2) set on the external device. […]

[2] = Determination of the in-vitro UVA-PF on PMMA plates (Labsphere UV-200S, Colipa method, post irradiation)
Description: UVA-photoprotection is expressed in UVA-protection factor (UVA-PF). UVA-PF is similar to SPF in that it is a measure of how well a sunscreen protects the skin from UVA radiation. It is performed in a similar manner by irradiating the skin with UVA. This can be done in vivo with human skin or in vitro, where it is performed by applying the sunscreen to an PMMA plate (Polymethymethacrylate plate) and measuring how much UVA passes through the slide with or without the sunscreen. To characterize protection from UVA radiation, the PPD (Persistent Pigment Darkening) method, which measures the color of the skin observed 2 to 4 hours after exposure of the skin to UVA radiation, is used. The PPD method appears to correlate well with the in vitro UVA-PF testing.
as §1, §2, §3, §4, §5, §6, §7, §8, §9, §10, §11
(§12) At the beginning of the measurement, a blank value of the glycerin reference sample is measured (“scan blank plate”). […]

[3] = Critical wavelength of the sunscreen formulation (post irradiation)
Source text: The term “broad-spectrum photo-protection” means photo-protection from both UVA and UVB radiation. Broad-spectrum is based on the breadth of protection offered by a sunscreen in the UVA and UVB spectrums. In order for a sunscreen to be considered broad-spectrum, it must have achieved a critical wavelength of at least 370 nm, meaning that 10% of the protection that the sunscreen offers has to be for wavelengths above 370 nm. A critical wavelength>370 nm is a rigorous minimum that sunscreen products should achieve to be labelled as broad-spectrum”.
The term “critical wavelength” is defined as the wavelength at which the area under the UV protection curve (% protection versus wavelength) represents 90% of the total area under the curve in the UV region (280-400 nm). […]
In order to calculate the critical wavelength (λc), mathematical integration of the measured spectral absorbance from […] to 400 nm is performed to calculate the area beneath the absorbance curve. The critical wavelength value is based upon the inherent shape and breadth of the absorbance cure, not its amplitude. The critical wavelength is the wavelength below which 90% of the area under the absorbance curve sides. […]
The samples are measured using the UV-200S device, using the specified Colipa method. […]
as §12

[4] = 1.0% by weight added to sunscreen with modern organic UV-filter mixture (Example 1; control SPF 31.7)
[5] = 1.0% by weight, classic organic UV-filter combination (Example 3)
[6] = 1.0% by weight, classic organic UV-filter combination (Example 3; control SPF 33.7)
[7] = 1.0% by weight, modern organic UV-filter mixture (Example 1)
[8] = 3.0% by weight added to sunscreen with modern organic UV-filter mixture (Example 1; control SPF 31.7)
[9] = 3.0% by weight, classic organic UV-filter combination (Example 3)
[10] = 3.0% by weight, classic organic UV-filter combination (Example 3; control SPF 33.7)
[11] = 3.0% by weight, modern organic UV-filter mixture (Example 1)
[12] = 3.0%, modern organic UV-filter mixture (Example 1)

SMILES | in vitro SPF [1, 4] | in vitro SPF higher than reference sample without MAA [1, 5] | in vitro SPF [1, 6] | in vitro SPF higher than reference sample without MAA [1, 7] | in vitro SPF [1, 8] | in vitro SPF higher than reference sample without MAA [1, 9] | in vitro SPF [1, 10] | in vitro SPF higher than reference sample without MAA [1, 11] | improvement of the UVA-PF compared to the control sample [2, 12] | improvement of the UVA-PF compared to the control sample ([2]; 1.0%, classic organic UV-filter combination (Example 3)) | improvement of the UVA-PF compared to the control sample ([2]; 1.0%, modern organic UV-filter mixture (Example 1)) | improvement of the UVA-PF compared to the control sample ([2]; 3.0%, classic organic UV-filter combination (Example 3)) | critical wavelength ([3]; 1.0% and 3.0%, classic sunscreen composition (Example 3; without MAA 380 nm)) | critical wavelength ([3]; 3.0%, modern sunscreen composition (Example 1; without MAA 378 nm)) | in vitro SPF higher than control/reference sample without MAA ([1]; 1.0% by weight, modern organic UV-filter mixture of Example 2) | in vitro SPF ([1]; 1.0% by weight, modern organic UV-filter mixture of Example 2 (control SPF 52.4)) | improvement of the UVA-PF compared to the control sample ([2]; 1.0%, modern organic UV-filter mixture of Example 2)
CCOC(=O)CNC1=C/C(=N/c2ccccc2)CC(C)(C)C1 [MAA-1, ethyl 2-[[5,5-dimethyl-3-phenylimino-cyclohexen-1-yl]amino]acetate] | 53.4 | 5.0% | 35.4 | 68.5% | 86.1 | 61.4% | 54.4 | 171.6% | 9.35% |  |  |  |  |  |  |  | 
COc1ccc(/N=C2\CC(C)(C)CC3=C2SCC(C(=O)O)N3)cc1OC (centres unmarked) [MAA-13, 8-((3,4-dimethoyxphenyl)imino)-6,6-dimethyl-3,4,5,6,7,8-hexahydro-2-H-benzol[b][1,4]thiazine-3-carboxylic acid] | 34.4 | 7.7% | 36.3 | 8.52% | 39.8 | 87.2% | 63.1 | 25.6% | 30.75% | 3.2% | 14.8% | 5.2% | 381 nm | 379 nm |  |  | 
CC1(C)CC(NCC(=O)O)=C/C(=N/c2ccccc2)C1 [MAA-20, 2-[(5,5-dimethyl-3-phenylimino-cyclohexen-1-yl)amino]acetic acid] |  |  |  |  |  |  |  |  |  |  |  |  |  |  | 9% | 57.1 | 18.2%
